Experiments:
Experiment in all cases: cells
COLO-829 = assay type: functional, cell-based, Homo sapiens; details: Homo sapiens, COLO-829
Description: SANGER: Inhibition of human COLO-829 cell growth in a cell viability assay.

D-263MG = assay type: functional, cell-based, Homo sapiens; details: Homo sapiens, D-263MG
Description: SANGER: Inhibition of human D-263MG cell growth in a cell viability assay.

D-392MG = assay type: functional, cell-based, Homo sapiens; details: Homo sapiens, D-392MG
DSH1 = assay type: functional, cell-based, Homo sapiens; details: Homo sapiens, DSH1;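 note: growth inhibition of human DSH1 cells, measured with a cell viability readout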
Description: SANGER: Inhibition of human DSH1 cell growth in a cell viability assay.

DU-4475 = assay type: functional, cell-based; details: Homo sapiens
Description: SANGER: Inhibition of human DU-4475 cell growth in a cell viability assay.

Daoy = assay type: functional, cell-based, Homo sapiens; details: Homo sapiens, Daoy;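 note: daoy cell growth inhibition, read out as cell viability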
Description: SANGER: Inhibition of human Daoy cell growth in a cell viability assay.

ES1 = assay type: functional, cell-based, Homo sapiens; details: Homo sapiens, ES1;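 note: growth inhibition of ES1 cells, read out with a cell viability assay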
Description: SANGER: Inhibition of human ES1 cell growth in a cell viability assay.

EW-16 = assay type: functional, cell-based, Homo sapiens; details: Homo sapiens, EW-16;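 note: growth inhibition of human EW-16 cells, read out as cell viability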
Description: SANGER: Inhibition of human EW-16 cell growth in a cell viability assay.

HCC1937 = assay type: functional, cell-based, Homo sapiens; details: Homo sapiens, HCC1937;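 note: growth inhibition measured with a cell viability read-out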
Description: SANGER: Inhibition of human HCC1937 cell growth in a cell viability assay.

HEL = assay type: functional, cell-based, Homo sapiens; details: Homo sapiens, HEL;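 note: growth inhibition of HEL cells, read out with a cell viability assay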
Description: SANGER: Inhibition of human HEL cell growth in a cell viability assay.

HL-60 = assay type: functional, cell-based; details: Homo sapiens;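 note: growth inhibition of human HL-60 cells, read out with a cell viability assay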
Description: SANGER: Inhibition of human HL-60 cell growth in a cell viability assay.

HT-144 = assay type: functional, cell-based, Homo sapiens; details: Homo sapiens, HT-144
Description: SANGER: Inhibition of human HT-144 cell growth in a cell viability assay.

HuP-T3 = assay type: functional, cell-based, Homo sapiens; details: Homo sapiens, HuP-T3;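 note: HuP-T3 cell growth inhibition, read out with a cell viability assay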
Description: SANGER: Inhibition of human HuP-T3 cell growth in a cell viability assay.

IST-MEL1 = assay type: functional, cell-based, Homo sapiens; details: Homo sapiens, IST-MEL1;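 note: growth inhibition of the cell line, read out with a cell viability assay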
Description: SANGER: Inhibition of human IST-MEL1 cell growth in a cell viability assay.

J-RT3-T3-5 = assay type: functional, cell-based; details: Homo sapiens;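 note: cell viability assay measuring growth inhibition of human J-RT3-T3-5 cells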
Description: SANGER: Inhibition of human J-RT3-T3-5 cell growth in a cell viability assay.

JVM-2 = assay type: functional, cell-based; details: Homo sapiens;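 note: growth inhibition of JVM-2 cells determined by a cell viability assay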
Description: SANGER: Inhibition of human JVM-2 cell growth in a cell viability assay.

KOSC-2 = assay type: functional, cell-based, Homo sapiens; details: Homo sapiens, KOSC-2;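 note: growth inhibition of KOSC-2 cells, read out by a cell viability assay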
Description: SANGER: Inhibition of human KOSC-2 cell growth in a cell viability assay.

KYSE-520 cell line = assay type: functional, cell-based, Homo sapiens; details: Homo sapiens, KYSE-520;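 note: growth inhibition of human KYSE-520 cells, read out with a viability assay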
Description: SANGER: Inhibition of human KYSE-520 cell growth in a cell viability assay.

LAN-6 = assay type: functional, cell-based, Homo sapiens; details: Homo sapiens, LAN-6;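 note: growth inhibition of LAN-6 cells, determined with a cell viability assay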
Description: SANGER: Inhibition of human LAN-6 cell growth in a cell viability assay.

LN-405 = assay type: functional, cell-based, Homo sapiens; details: Homo sapiens, LN-405
Description: SANGER: Inhibition of human LN-405 cell growth in a cell viability assay.

MHH-ES-1 = assay type: functional, cell-based, Homo sapiens; details: Homo sapiens, MHH-ES-1;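 note: cell growth inhibition measured by a cell viability assay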
Description: SANGER: Inhibition of human MHH-ES-1 cell growth in a cell viability assay.

NCI-H1092 = assay type: functional, cell-based; details: Homo sapiens;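 note: cell growth inhibition measured with a cell viability assay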
Description: SANGER: Inhibition of human NCI-H1092 cell growth in a cell viability assay.

NCI-H1650 = assay type: functional, cell-based, Homo sapiens; details: Homo sapiens, NCI-H1650;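 note: growth inhibition of human NCI-H1650 cells measured by a cell viability assay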
Description: SANGER: Inhibition of human NCI-H1650 cell growth in a cell viability assay.

NCI-H1755 = assay type: functional, cell-based, Homo sapiens; details: Homo sapiens, NCI-H1755;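 note: cell viability readout used to measure growth inhibition of NCI-H1755 cells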
Description: SANGER: Inhibition of human NCI-H1755 cell growth in a cell viability assay.

NCI-H727 = assay type: functional, cell-based, Homo sapiens; details: Homo sapiens, NCI-H727;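 note: growth inhibition of human NCI-H727 cells, read out with a cell viability assay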
Description: SANGER: Inhibition of human NCI-H727 cell growth in a cell viability assay.

SNU1 = assay type: functional, cell-based; details: Homo sapiens;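 note: growth inhibition of human NCI-SNU-1 cells, measured with a cell viability assay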
Description: SANGER: Inhibition of human NCI-SNU-1 cell growth in a cell viability assay.

OE33 = assay type: functional, cell-based, Homo sapiens; details: Homo sapiens, OE33;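 note: growth inhibition of human OE33 cells, measured by a cell viability assay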
Description: SANGER: Inhibition of human OE33 cell growth in a cell viability assay.

ONS-76 = assay type: functional, cell-based, Homo sapiens; details: Homo sapiens, ONS-76;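 note: growth inhibition of human ONS-76 cells, read out with a cell viability assay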
Description: SANGER: Inhibition of human ONS-76 cell growth in a cell viability assay.

Panc1005 = assay type: functional, cell-based, Homo sapiens; details: Homo sapiens, Panc1005;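 note: growth inhibition of human PANC-10-05 cells, measured by a cell viability assay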
Description: SANGER: Inhibition of human PANC-10-05 cell growth in a cell viability assay.

RH-1 = assay type: functional, cell-based, Homo sapiens; details: Homo sapiens, RH-1;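 note: growth inhibition of human RH-1 cells, read out with a cell viability assay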
Description: SANGER: Inhibition of human RH-1 cell growth in a cell viability assay.

RO82-W-1 = assay type: functional, cell-based, Homo sapiens; details: Homo sapiens, RO82-W-1;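 note: growth inhibition of human RO82-W-1 cells, measured with a cell viability assay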
Description: SANGER: Inhibition of human RO82-W-1 cell growth in a cell viability assay.

RPMI-8866 = assay type: functional, cell-based; details: Homo sapiens
Description: SANGER: Inhibition of human RPMI-8866 cell growth in a cell viability assay.

S-117 = assay type: functional, cell-based, Homo sapiens; details: Homo sapiens, S-117
Description: SANGER: Inhibition of human S-117 cell growth in a cell viability assay.

SCC-25 = assay type: functional, cell-based, Homo sapiens; details: Homo sapiens, SCC-25;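 note: growth inhibition of SCC-25 cells, measured with a cell viability assay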
Description: SANGER: Inhibition of human SCC-25 cell growth in a cell viability assay.

SK-MEL-24 = assay type: functional, cell-based; details: Homo sapiens;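 note: growth inhibition read out by a cell viability assay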
Description: SANGER: Inhibition of human SK-MEL-24 cell growth in a cell viability assay.

SK-OV-3 = assay type: functional, cell-based, Homo sapiens; details: Homo sapiens, SK-OV-3;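 note: growth inhibition of SK-OV-3 human cells, read out with a cell viability assay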
Description: SANGER: Inhibition of human SK-OV-3 cell growth in a cell viability assay.

SNB-75 = assay type: functional, cell-based, Homo sapiens; details: Homo sapiens, SNB-75;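 note: cell viability assay measuring growth inhibition of human SNB-75 cells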
Description: SANGER: Inhibition of human SNB75 cell growth in a cell viability assay.

SW1990 = assay type: functional, cell-based, Homo sapiens; details: Homo sapiens, SW1990;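 note: cell growth inhibition determined with a viability assay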
Description: SANGER: Inhibition of human SW1990 cell growth in a cell viability assay.

T98G = assay type: functional, cell-based, Homo sapiens; details: Homo sapiens, T98G;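 note: growth inhibition of T98G cells, read out by a cell viability assay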
Description: SANGER: Inhibition of human T98G cell growth in a cell viability assay.

639-V = assay type: functional, cell-based, Homo sapiens; details: Homo sapiens, 639-V;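 note: growth inhibition of 639-V cells, read out with a cell viability assay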
Description: SANGER: Inhibition of human 639-V cell growth in a cell viability assay.

769-P = assay type: functional, cell-based, Homo sapiens; details: Homo sapiens, 769-P
Description: SANGER: Inhibition of human 769-P cell growth in a cell viability assay.

A 172 = assay type: functional, cell-based, Homo sapiens; details: Homo sapiens, A 172;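 note: growth inhibition of A172 cells, measured with a cell viability readout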
Description: SANGER: Inhibition of human A172 cell growth in a cell viability assay.

A704 = assay type: functional, cell-based, Homo sapiens; details: Homo sapiens, A704;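 note: growth inhibition of human A704 cells, read out with a cell viability assay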
Description: SANGER: Inhibition of human A704 cell growth in a cell viability assay.

ABC-1 = assay type: functional, cell-based, Homo sapiens; details: Homo sapiens, ABC-1;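 note: growth inhibition of human ABC-1 cells, read out by a cell viability assay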
Description: SANGER: Inhibition of human ABC-1 cell growth in a cell viability assay.

BB65-RCC = assay type: functional, cell-based, Homo sapiens; details: Homo sapiens, BB65-RCC;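 note: growth inhibition of the cell line, measured with a cell viability assay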
Description: SANGER: Inhibition of human BB65-RCC cell growth in a cell viability assay.

BCPAP = assay type: functional, cell-based, Homo sapiens; details: Homo sapiens, BCPAP;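 note: growth inhibition of BCPAP cells, read out in a cell viability assay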
Description: SANGER: Inhibition of human BCPAP cell growth in a cell viability assay.

C32 = assay type: functional, cell-based, Homo sapiens; details: Homo sapiens, C32;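 note: cell viability assay, with IC50 reflecting inhibition of C32 cell growth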
Description: SANGER: Inhibition of human C32 cell growth in a cell viability assay.

UACC-257 = assay type: functional, cell-based, Homo sapiens; details: Homo sapiens, UACC-257
Description: SANGER: Inhibition of human UACC-257 cell growth in a cell viability assay.

UACC-62 = assay type: functional, cell-based, Homo sapiens; details: Homo sapiens, UACC-62;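 note: growth inhibition of human UACC-62 cells, read out by a cell viability assay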
Description: SANGER: Inhibition of human UACC-62 cell growth in a cell viability assay.

CAS-1 = assay type: functional, cell-based, Homo sapiens; details: Homo sapiens, CAS-1;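 note: growth inhibition of CAS-1 cells, measured with a cell viability assay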
Description: SANGER: Inhibition of human CAS-1 cell growth in a cell viability assay.

CHL-1 = assay type: functional, cell-based, Homo sapiens; details: Homo sapiens, CHL-1;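 note: cell growth inhibition, read out with a cell viability assay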
Description: SANGER: Inhibition of human CHL-1 cell growth in a cell viability assay.

SMILES: O=C1N=C(NCc2cccs2)S/C1=C\c1ccc2ncccc2c1
- IC50 (COLO-829): > 5 µM
- IC50 (D-263MG): > 5 µM
- IC50 (D-392MG): > 5 µM
- IC50 (DSH1): > 5 µM
- IC50 (DU-4475): > 5 µM
- IC50 (Daoy): > 5 µM
- IC50 (ES1): > 5 µM
- IC50 (EW-16): > 5 µM
- IC50 (HCC1937): > 5 µM
- IC50 (HEL): > 5 µM
- IC50 (HL-60): > 5 µM
- IC50 (HT-144): > 5 µM
- IC50 (HuP-T3): > 5 µM
- IC50 (IST-MEL1): > 5 µM
- IC50 (J-RT3-T3-5): > 5 µM
- IC50 (JVM-2): > 5 µM
- IC50 (KOSC-2): 3.45 µM
- IC50 (KYSE-520 cell line): > 5 µM
- IC50 (LAN-6): > 5 µM
- IC50 (LN-405): > 5 µM
- IC50 (MHH-ES-1): > 5 µM
- IC50 (NCI-H1092): > 5 µM
- IC50 (NCI-H1650): > 5 µM
- IC50 (NCI-H1755): > 5 µM
- IC50 (NCI-H727): > 5 µM
- IC50 (SNU1): 0.731 µM
- IC50 (OE33): > 5 µM
- IC50 (ONS-76): > 5 µM
- IC50 (Panc1005): > 5 µM
- IC50 (RH-1): > 5 µM
- IC50 (RO82-W-1): > 5 µM
- IC50 (RPMI-8866): > 5 µM
- IC50 (S-117): > 5 µM
- IC50 (SCC-25): > 5 µM
- IC50 (SK-MEL-24): > 5 µM
- IC50 (SK-OV-3): > 5 µM
- IC50 (SNB-75): > 5 µM
- IC50 (SW1990): > 5 µM
- IC50 (T98G): 1.37 µM
- IC50 (639-V): 2.28 µM
- IC50 (769-P): > 5 µM
- IC50 (A 172): > 5 µM
- IC50 (A704): > 5 µM
- IC50 (ABC-1): > 5 µM
- IC50 (BB65-RCC): > 5 µM
- IC50 (BCPAP): > 5 µM
- IC50 (C32): > 5 µM
- IC50 (UACC-257): > 5 µM
- IC50 (UACC-62): > 5 µM
- IC50 (CAS-1): > 5 µM
- IC50 (CHL-1): > 5 µM

SMILES: CCOc1nc(NC(=O)Cc2cc(OC)ccc2OC)cc(N)c1C#N
- IC50 (COLO-829): > 10 µM
- IC50 (D-263MG): > 10 µM
- IC50 (D-392MG): > 10 µM
- IC50 (DSH1): > 10 µM
- IC50 (DU-4475): > 10 µM
- IC50 (Daoy): > 10 µM
- IC50 (ES1): > 10 µM
- IC50 (EW-16): > 10 µM
- IC50 (HCC1937): > 10 µM
- IC50 (HEL): > 10 µM
- IC50 (HL-60): > 10 µM
- IC50 (HT-144): > 10 µM
- IC50 (HuP-T3): > 10 µM
- IC50 (IST-MEL1): > 10 µM
- IC50 (J-RT3-T3-5): > 10 µM
- IC50 (JVM-2): > 10 µM
- IC50 (KOSC-2): > 10 µM
- IC50 (KYSE-520 cell line): > 10 µM
- IC50 (LAN-6): > 10 µM
- IC50 (LN-405): > 10 µM
- IC50 (MHH-ES-1): > 10 µM
- IC50 (NCI-H1092): > 10 µM
- IC50 (NCI-H1650): > 10 µM
- IC50 (NCI-H1755): > 10 µM
- IC50 (NCI-H727): > 10 µM
- IC50 (SNU1): > 10 µM
- IC50 (OE33): > 10 µM
- IC50 (ONS-76): > 10 µM
- IC50 (Panc1005): > 10 µM
- IC50 (RH-1): > 10 µM
- IC50 (RO82-W-1): > 10 µM
- IC50 (RPMI-8866): > 10 µM
- IC50 (S-117): > 10 µM
- IC50 (SCC-25): > 10 µM
- IC50 (SK-MEL-24): > 10 µM
- IC50 (SK-OV-3): > 10 µM
- IC50 (SNB-75): > 10 µM
- IC50 (SW1990): > 10 µM
- IC50 (T98G): > 10 µM
- IC50 (639-V): > 10 µM
- IC50 (769-P): > 10 µM
- IC50 (A 172): > 10 µM
- IC50 (A704): > 10 µM
- IC50 (ABC-1): > 10 µM
- IC50 (BB65-RCC): > 10 µM
- IC50 (BCPAP): > 10 µM
- IC50 (C32): > 10 µM
- IC50 (UACC-257): > 10 µM
- IC50 (UACC-62): > 10 µM
- IC50 (CAS-1): > 10 µM
- IC50 (CHL-1): > 10 µM

SMILES: C=CCNC1=C2C[C@@H](C)C[C@H](OC)[C@H](O)[C@@H](C)/C=C(\C)[C@H](OC(N)=O)[C@@H](OC)/C=C\C=C(/C)C(=O)NC(=CC1=O)C2=O [TANESPIMYCIN]
- IC50 (COLO-829): 0.12 µM
- IC50 (D-263MG): 0.0279 µM
- IC50 (D-392MG): 0.894 µM
- IC50 (DSH1): 0.0381 µM
- IC50 (DU-4475): 0.0226 µM
- IC50 (Daoy): 0.317 µM
- IC50 (ES1): > 1 µM
- IC50 (EW-16): > 1 µM
- IC50 (HCC1937): 0.163 µM
- IC50 (HEL): > 1 µM
- IC50 (HL-60): > 1 µM
- IC50 (HT-144): 0.0309 µM
- IC50 (HuP-T3): 0.401 µM
- IC50 (IST-MEL1): < 0.00391 µM
- IC50 (J-RT3-T3-5): > 1 µM
- IC50 (JVM-2): > 1 µM
- IC50 (KOSC-2): 0.177 µM
- IC50 (KYSE-520 cell line): 0.182 µM
- IC50 (LAN-6): > 1 µM
- IC50 (LN-405): 0.417 µM
- IC50 (MHH-ES-1): 0.237 µM
- IC50 (NCI-H1092): > 1 µM
- IC50 (NCI-H1650): 0.201 µM
- IC50 (NCI-H1755): 0.0634 µM
- IC50 (NCI-H727): > 1 µM
- IC50 (SNU1): 0.00207 µM
- IC50 (OE33): 0.851 µM
- IC50 (ONS-76): > 1 µM
- IC50 (Panc1005): 0.412 µM
- IC50 (RH-1): > 1 µM
- IC50 (RO82-W-1): 0.397 µM
- IC50 (RPMI-8866): > 1 µM
- IC50 (S-117): 0.206 µM
- IC50 (SCC-25): 0.246 µM
- IC50 (SK-MEL-24): 0.139 µM
- IC50 (SK-OV-3): 0.176 µM
- IC50 (SNB-75): 0.122 µM
- IC50 (SW1990): 0.122 µM
- IC50 (T98G): 0.041 µM
- IC50 (639-V): 0.15 µM
- IC50 (769-P): 0.213 µM
- IC50 (A 172): 0.21 µM
- IC50 (A704): > 1 µM
- IC50 (ABC-1): > 1 µM
- IC50 (BB65-RCC): 0.106 µM
- IC50 (BCPAP): 0.189 µM
- IC50 (C32): 0.00304 µM
- IC50 (UACC-257): 0.822 µM
- IC50 (UACC-62): 0.322 µM
- IC50 (CAS-1): > 1 µM
- IC50 (CHL-1): 0.0225 µM

Reference: ChEMBL document CHEMBL1201861, “Genomics of Drug Sensitity in Cancer screening data, Wellcome Trust Sanger Institute”
